We go through 17 compounds from patent US9624243B2, “Heterocyclic compounds and methods of their use” (Novartis AG, priority 2012, dated 2017).

pIC50, pKi: −log10 of the molar value.

One assay has as its target AT2 receptor (Homo sapiens (Human), UniProt P50052). Put plainly: AT2 Receptor Binding. The note with it: HEK293 AT2 receptor transient cell membranes, [125I]-CGP42112A. The method, then: 1. Trypsin-EDTA (for Preparation of 100 mL)
• Dissolve trypsin in 2% EDTA and PBS completely; sterilize the solution by passing through a […] membrane filter; store at 4° C.
2. DMEM Medium (for Preparation of 1 L) • The powder was dissolved into 950 mL of distilled water with gentle stirring until the solution becomes clear. • Add. NaHCO3 1.176 g for DMEM medium. • Adjust pH of medium to 0.2˜0.3 below final working pH using 1 M NaOH or 1 M • HCl. Add slowly with stirring. • Dilute to 1 liter with ddH2O. • Sterilize the medium immediately by filtration. • Store at 4° C.
3. TE Buffer • 20 mM Tris-HCl, pH 7.4, • 5 mM EDTA
4. Binding Assay Buffer • 50 mM Hepes, pH 7.4 • 5 mM MgCl2 • 1 mM CaCl2 • 0.2% BSA
5. Wash Buffer • 50 mM Hepes, pH 7.4 Procedures for HEK293AT2 Receptor Transient Cell Transfection • Cells were plated into 150 mm dish at 50% density for transient transfection. Cells were ready for transfection after overnight incubation (the confluence reaches around 80%). • 75 μL Lipofectamine™2000 diluted in 6.25 mL OptiMEM I Reduced Serum Medium, was mixed gently, and incubated at room temperature for 5 minutes. 50 μg expression plasmid DNA diluted in 6.25 mL OptiMEM I Reduced Serum Medium without serum was mixed gently. • After the 5 minute incubation, the diluted DNA was combined with the diluted Lipofectamine™2000 (total volume is 12.5 mL). The mixture was mixed gently and incubated for 30 minutes at room temperature to allow the DNA-Lipofectamine™2000 complexes to form. • The 12.5 mL DNA-Lipofectamine™2000 complexes were added into the 150 mm dish and mixed gently by rocking the dish back and forth. • The cells were incubated at 37° C. with 5% CO2 for 48 hours. Cells were collected and stored frozen at −80° C. Procedures for HEK293AT2 Receptor Cell Membrane Preparation • Frozen HEK293AT2 receptor (transient transfected) cells were homogenized in ice cold TE buffer for 10s. • The homogenate was centrifuged at 25,000 g for 30 minutes. • The pellet was resuspended in ice cold tissue buffer. • Protein concentrations were determined using Bradford assay method with BSA as standard. • The membrane protein was frozen under −80° C. Compound Preparation
Solutions of all compounds were prepared bymicroplate liquid handling equipment such as Janus or Precision 2000. Compounds, dissolved in DMSO were stored in a Freezer. Compounds were prepared from 30 mM in 100% DMSO.
Step 1: Dose Plate Preparation (96 Well Plate)
• Add the 3 μL [30 mM] compound stock to column 1 on the plate. • Add 15 μL of 100% DMSO to column 1. • Add 10.81 μL of 100% DMSO to column 2-12. • Transfer 5 μL from column 1 into column 2 (half log dilution). • Transfer 5 μL from column 2 into column 3 (half log dilution). • Transfer 5 μL from column 3 into column 4 (half log dilution). • Transfer 5 μL from column 4 into column 5 (half log dilution). • Transfer 5 μL from column 5 into column 6 (half log dilution). • Transfer 5 μL from column 6 into column 7 (half log dilution). • Transfer 5 μL from column 7 into column 8 (half log dilution). • Transfer 5 μL from column 8 into column 9 (half log dilution). • Transfer 5 μL from column 9 into column 10 (half log dilution) • Transfer 5 μL from column 10 into column 11 (half log dilution) • Transfer 5 μL from column 11 into column 12 (half log dilution).
All the compounds were diluted using Precision 2000 microplate liquid handling equipment. The top concentration of compound was 5 mM with 100% DMSO.
Step 2: Working Plate Preparation (96 Well Plate)
• Compounds were diluted 50-fold with buffer. • 49 μL buffer was added to the well of 96 well plate. • 1 μL compound solution from dose plate was transferred to the corresponding well of working plate. • The top concentration of compound was 100 μM with 2% DMSO. Step 3: Assay Plate Preparation (96 Well Plate)
15 μL of compound solution was transferred from each well of working plate to the well of assay plate by Janus.

Another assay addresses AT1 receptor (Homo sapiens (Human), UniProt P30556). The assay is described as follows: AT1 Receptor Binding. Particulars: HEK293/AT1 receptor transient cell membranes, [125I]-Sar1-Ile8-Angiotensin II; top concentration tested 10 μM. From the text: The same media, solutions, cell procedures and compound preparation was used as for Biological Example 1 but using HEK293/AT1 Receptor Transient Cells.

A further assay has as its system NG108-15 neurite cells. Put plainly: AT2 Receptor Neurite Outgrowth Assay. The format is cell-based. Particulars: NG108-15 cells, in the presence of angiotensin II 0.1 μM, compound 0.003-10 μM. The protocol:
The general methodology of Wallinder (2008) and references cited therein was used to assess the effect of the compounds of the present invention on neurite outgrowth. The assay was adapted for high content screening.
EMA1087 is a known AT2 receptor agonist described as “compound 21” in Wan et al. 2004. PD-123,319 is a known, commercially available AT2 receptor antagonist. The results were analyzed by immunofluorescence quantitative analysis. Neurite outgrowth was quantified with neurite average length using Cellomics software. Results are expressed as the mean±SEM, each conducted in triplicate. Statistical significance, compared with Ang II control: *p<0.05, **p<0.01, and ***p<0.001. NS: no significant difference. ND: not determined. FIGS. 1 to 5 show neurite outgrowth was inhibited by the AT2 receptor antagonists, PD-126,055 and compounds 6, 15, 21 and 28.

Sequence of AT2 receptor (P50052 whole entry, species assumed): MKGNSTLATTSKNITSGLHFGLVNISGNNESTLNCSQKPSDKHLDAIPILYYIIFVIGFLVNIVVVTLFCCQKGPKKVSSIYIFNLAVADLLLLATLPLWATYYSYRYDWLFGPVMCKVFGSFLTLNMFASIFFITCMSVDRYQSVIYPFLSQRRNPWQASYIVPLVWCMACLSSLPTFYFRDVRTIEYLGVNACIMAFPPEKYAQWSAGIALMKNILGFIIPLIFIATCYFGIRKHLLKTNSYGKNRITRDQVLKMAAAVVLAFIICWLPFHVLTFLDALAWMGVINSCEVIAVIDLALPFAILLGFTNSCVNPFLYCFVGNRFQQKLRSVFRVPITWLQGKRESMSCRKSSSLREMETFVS
Sequence of AT1 receptor (P30556 whole entry, species assumed): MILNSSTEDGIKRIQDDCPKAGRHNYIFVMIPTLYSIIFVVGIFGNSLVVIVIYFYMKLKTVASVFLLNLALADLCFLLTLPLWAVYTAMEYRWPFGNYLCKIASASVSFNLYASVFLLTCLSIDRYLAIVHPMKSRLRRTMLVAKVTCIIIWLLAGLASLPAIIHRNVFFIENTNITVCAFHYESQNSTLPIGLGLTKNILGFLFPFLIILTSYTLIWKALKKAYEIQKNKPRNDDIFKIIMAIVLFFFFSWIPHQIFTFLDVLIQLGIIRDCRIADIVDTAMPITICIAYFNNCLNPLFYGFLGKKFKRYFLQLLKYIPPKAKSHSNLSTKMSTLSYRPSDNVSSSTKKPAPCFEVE

`CN(CCCc1ccccc1)[C@H]1C[C@@H](C(=O)O)N(C(=O)C(c2ccccc2)c2ccccc2)C1` [Compound 21, (2S,4S)-1-(2,2-diphenylacetyl)-4-(methyl(3-phenylpropyl)amino)pyrrolidine-2-carboxylic acid]: the pIC50 at AT2 receptor was 7.21; at AT1 receptor it was < 5.00. Further, the pKi on AT1 receptor was < 5.00. Besides, in the assay on NG108-15 neurite cells, the “neurite outgrowth (neurite average length)” value (“neurite outgrowth” for short) was “inhibited”.

Take `O=C(O)[C@@H]1C[C@H](N2CCOC[C@@H]2Cc2ccccc2)CN1C(=O)C(c1ccccc1)c1ccccc1` [Compound 28, (2S,4S)-4-((S)-3-benzylmorpholino)-1-(2,2-diphenylacetyl)pyrrolidine-2-carboxylic acid]: the pIC50 at AT2 receptor is 7.06. Besides, in the assay with NG108-15 neurite cells, the “neurite outgrowth” value is on record as “inhibited”.

Compound `O=C(O)[C@@H]1C[C@H](CS(=O)(=O)Cc2ccccc2)CN1C(=O)C(c1ccccc1)c1ccccc1` [Compound 118, (2S,4S)-4-((benzylsulfonyl)methyl)-1-(diphenylacetyl)-pyrrolidine-2-carboxylic acid] had a pIC50 at AT2 receptor of 6.50.

In turn, `O=C(O)[C@@H]1C[C@H](CS(=O)(=O)c2ccccc2)CN1C(=O)C(c1ccccc1)c1ccccc1` [Compound 119, (2S,4S)-4-((phenylsulfonyl)methyl)-1-(diphenylacetyl)-pyrrolidine-2-carboxylic acid] showed a pIC50 on AT2 receptor of 5.58.

`O=C(O)[C@@H]1C[C@H](CSCCc2ccccc2)CN1C(=O)C(c1ccccc1)c1ccccc1` [Compound 120, (2S,4S)-1-(2,2-diphenylacetyl)-4-((phenethylthio)methyl)pyrrolidine-2-carboxylic acid] had a pIC50 at AT2 receptor of 5.92.

`O=C(O)[C@@H]1C[C@H](CSCc2ccccc2)CN1C(=O)C(c1ccccc1)c1ccccc1` [Compound 121, (2S,4S)-4-((benzylthio)methyl)-1-(2,2-diphenylacetyl)pyrrolidine-2-carboxylic acid] gave a pIC50 at AT2 receptor of 7.24.

In the case of `O=C(O)[C@@H]1C[C@H](CSc2ccccc2)CN1C(=O)C(c1ccccc1)c1ccccc1` [Compound 122, (2S,4S)-1-(2,2-diphenylacetyl)-4-((phenylthio)methyl)pyrrolidine-2-carboxylic acid], on AT2 receptor, the pIC50 was 6.85.

At AT2 receptor, `O=C(O)[C@@H]1C[C@H](SCCCc2ccccc2)CN1C(=O)C(c1ccccc1)c1ccccc1` [Compound 124, (2S,4S)-1-(2,2-diphenylacetyl)-4-((3-phenylpropyl)thio)-pyrrolidine-2-carboxylic acid] showed a pIC50 of 6.44.

On AT2 receptor, `O=C(O)[C@@H]1C[C@H](S(=O)(=O)CCCc2ccccc2)CN1C(=O)C(c1ccccc1)c1ccccc1` [Compound 125, (2S,4S)-1-(2,2-diphenylacetyl)-4-((3-phenylpropyl)-sulfonyl)pyrrolidine-2-carboxylic acid] had a pIC50 of 5.91.

On to `CN(CCOc1ccc(F)cc1)[C@H]1C[C@@H](C(=O)O)N(C(=O)C(c2ccccc2)c2ccccc2)C1` [Compound 126], for which the pIC50 on AT2 receptor is 7.69.

With `O=C(O)[C@@H]1C[C@H](SCCc2ccccc2)CN1C(=O)C(c1ccccc1)c1ccccc1` [Compound 131, (2S,4S)-1-(2,2-diphenylacetyl)-4-(phenethylthio)pyrrolidine-2-carboxylic acid], the pIC50 at AT2 receptor is 6.19.

In turn, `O=C(O)[C@@H]1C[C@H](SCCCc2ccc(F)cc2)CN1C(=O)C(c1ccccc1)c1ccccc1` [Compound 133, (2S,4S)-1-(2,2-diphenylacetyl)-4((3-(4-fluorophenyl)propyl)thio)pyrrolidine-2-carboxylic acid] had a pIC50 on AT2 receptor of 5.76.

In the case of `O=C(O)[C@@H]1C[C@H](S(=O)(=O)CCCc2ccc(F)cc2)CN1C(=O)C(c1ccccc1)c1ccccc1` [Compound 134, (2S,4S)-1-(2,2-diphenylacetyl)-4((3-(4-fluorophenyl)propyl)sulfonyl)pyrrolidine-2-carboxylic acid], the pIC50 at AT2 receptor is 6.02.

Compound `CS(=O)(=O)NC(=O)[C@@H]1C[C@H](OCCCc2ccccc2)CN1C(=O)C(c1ccccc1)c1ccccc1` [Compound 135, (2S,4S)-1-(2,2-diphenylacetyl)-N-(methylsulfonyl)-4-(phenylpropoxy)pyrrolidine-2-carboxamide] had a pIC50 on AT2 receptor of 6.62.

In turn, `O=C(O)[C@@H]1C=C(c2sccc2-c2ccccc2)CN1C(=O)C(c1ccccc1)c1ccccc1` [Compound 139, (S)-1-(2,2-diphenylacetyl)-4-(3-phenylthiophen-2-yl)-2,5-dihydro-1H-pyrrole-2-carboxylic acid] gave a pIC50 on AT2 receptor of 5.60.

On to `O=C(O)[C@@H]1C=C(C#CCCc2ccccc2)CN1C(=O)C(c1ccccc1)c1ccccc1` [Compound 140, (S)-1-(2,2-diphenylacetyl)-4-(4-phenylbut-1-yn-1-yl)-2,5-dihydro-1H-pyrrole-2-carboxylic acid], for which, on AT2 receptor, the pIC50 is 6.17.

On to `COc1ccc2c(c1OCc1ccccc1)C[C@@H](C(=O)O)N(C(=O)C(c1ccccc1)c1ccccc1)C2` [PD-126,055, reference compound], for which, at AT1 receptor, the negative-log IC50 (pIC50) was < 5.00 and the pKi was < 5.00. The “neurite outgrowth” value in the assay with NG108-15 neurite cells is “inhibited”.
